The record followed here is patent US6432969B1, “N-(substituted glycyl)-2 cyanopyrrolidines, pharmaceutical compositions containing them and their use in inhibiting dipeptidyl peptidase-IV” (Novartis AG, priority 2000, dated 2002).

Structures can show the parent of a compound that is named as a salt.

Usually melting point stands for the temperature, or range, at which the solid turns liquid. Regarding `N#C[C@@H]1CCCN1C(=O)CNC1CCC(Nc2ccc(C(F)(F)F)cn2)CC1` (stereo partly shown) (as salt: hydrochloride), the melting point lay in the range of 270 to 273 °C.
`N#C[C@@H]1CCCN1C(=O)CN[C@H]1CC[C@H](NS(=O)(=O)c2cccs2)CC1` (as salt: hydrochloride) [Ex. 2AA]: the melting point lay in the range of 75 to 77 °C.
Under `CC(C)(CNc1ccc(C(F)(F)F)cn1)NCC(=O)N1CCC[C@H]1C#N` (as salt: hydrochloride) [Ex. 2B, 1-[[[2-[(5-trifluoromethyl-2-pyridinyl)amino]-1,1-dimethylethyl]amino]acetyl]-2-cyano-(S)-pyrrolidine] stands 170 to 172 °C; under `CC(C)(Cc1ccc(F)cc1)NCC(=O)N1CCC[C@H]1C#N` (as salt: hydrochloride) [Ex. 2BB], 198 to 200 °C.
To `CC(C)(Cc1ccccc1)NCC(=O)N1CCC[C@H]1C#N` (as salt: hydrochloride) [Ex. 2CC, 1-[[(1,1-dimethyl-2-phenylethyl)amino]acetyl]-2-cyano-(S)-pyrrolidine] belongs 212 to 214 °C.
For the molecule `CC(C)(CNc1ncccc1Cl)NCC(=O)N1CCC[C@H]1C#N` (as salt: hydrochloride) [Ex. 2D, 1-[[[2-[(3-chloro-2-pyridinyl)amino]-1,1-dimethylethyl]amino]acetyl]-2-cyano-(S)-pyrrolidine], the melting point was 144 to 146 °C.
`CCCCCC12CCC(NCC(=O)N3CCC[C@H]3C#N)(CC1)CC2` (as salt: hydrochloride) [Ex. 2DD, 1-[[(4-pentylbicyclo[2.2.2]oct-1-yl)amino]acetyl]-2-cyano-(S)-pyrrolidine] registered a melting point of 99 to 102 °C.
Under `CC(C)(CNc1ncc(Cl)cc1Cl)NCC(=O)N1CCC[C@H]1C#N` (as salt: hydrochloride) [Ex. 2F, 1-[[[2-[(3,5-dichloro-2-pyridinyl)amino]-1,1-dimethylethyl]amino]acetyl]-2-cyano-(S)-pyrrolidine] stands 108 to 110 °C.
Turning to `N#CC1CCCN1C(=O)CNC1CCC(Oc2ccc(Cl)cc2)CC1` (as salt: hydrochloride) [Ex. 2FF, 1-[[4-[4-chlorophenoxy)cyclohexyl]amino]acetyl]-2-cyano-(S)-pyrrolidine], the melting point is 232 to 235 °C.
Under `CC(C)(CNc1ncccc1C(F)(F)F)NCC(=O)N1CCC[C@H]1C#N` (as salt: hydrochloride) [Ex. 2G, 1-[[[2-[(3-trifluoromethyl-2-pyridinyl)amino]-1,1-dimethylethyl]amino]acetyl]-2-cyano-(S)-pyrrolidine] stands 112 to 114 °C.
Under `N#C[C@@H]1CCCN1C(=O)CN[C@H]1CC[C@H](Oc2cccc(C(F)(F)F)c2)CC1` (as salt: hydrochloride) [Ex. 2GG, 1-[[[4-[(3-trifluoromethyl)phenoxy]cyclohexyl]amino]acetyl]-2-cyano-(S)-pyrrolidine] stands 120 to 122 °C; under `CC(C)(CNC(=O)C(C)(C)C)NCC(=O)N1CCC[C@H]1C#N` (as salt: hydrochloride) [Ex. 2H, 1-[[[2-[(2,2-dimethyl-1-oxopropyl)amino]-1,1-dimethylethyl]amino]acetyl]-2-cyano-(S)-pyrrolidine], 225 to 227 °C.
Consider `N#C[C@@H]1CCCN1C(=O)CN[C@H]1CC[C@H](Oc2cccc(Cl)c2)CC1` (as salt: hydrochloride) [Ex. 2HH], for which the melting point is 72 to 74 °C.
`CC(C)(CNC(=O)c1ccc(Cl)cc1)NCC(=O)N1CCC[C@H]1C#N` (as salt: hydrochloride) [Ex. 2I, 1-[[[2-[(4-chlorobenzoyl)amino]-1,1-dimethylethyl]amino]acetyl]-2-cyano-(S)-pyrrolidine]: the melting point lay in the range of 121 to 123 °C.
In turn, `N#C[C@@H]1CCCN1C(=O)CNC1CCN(C(=O)Nc2ccc(Cl)cc2)CC1` (as salt: hydrochloride) [Ex. 2II, 1-[[[1-[[(4-chlorophenyl)amino]carbonyl]-4-piperidinyl]amino]acetyl]-2-cyano-(S)-pyrrolidine] showed a melting point of 172 to 174 °C.
To `CC(C)N(C(=O)NCC(C)(C)NCC(=O)N1CCC[C@H]1C#N)C(C)C` (as salt: hydrochloride) [Ex. 2J, 1-[[[2-[[(diisopropylamino)carbonyl]amino]-1,1-dimethylethyl]amino]acetyl]-2-cyano-(S)-pyrrolidine] belongs 128 to 130 °C; to `CC(C)N(C(=O)N1CCC(NCC(=O)N2CCC[C@H]2C#N)CC1)C(C)C` (as salt: hydrochloride) [Ex. 2JJ, 1-[[[1-[(diisopropylamino)carbonyl]-4-piperidinyl]amino]acetyl]-2-cyano-(S)-pyrrolidine], 82 to 84 °C.
Under `CC(C)(CNC(=O)Nc1ccc(Cl)cc1)NCC(=O)N1CCC[C@H]1C#N` (as salt: hydrochloride) [Ex. 2K, 1-[[[2-[[[(4-chlorophenyl)amino]carbonyl]amino]-1,1-dimethylethyl]amino]acetyl]-2-cyano-(S)-pyrrolidine] stands 112 to 114 °C; under `N#Cc1ccc(NC2CCC(NCC(=O)N3CCC[C@H]3C#N)CC2)nc1` (stereo partly drawn) (as salt: hydrochloride) [Ex. 2L, 1-[[[4-[(5-cyano-2-pyridinyl)amino]cyclohexyl]amino]acetyl]-2-cyano-(S)-pyrrolidine], 242 to 244 °C; under `N#C[C@@H]1CCCN1C(=O)CNC1CCN(c2nc(-c3ccc(Cl)cc3)cs2)CC1` (as salt: hydrochloride) [Ex. 2LL], 160 to 162 °C.
Under `N#C[C@@H]1CCCN1C(=O)CNC1CCC(NS(=O)(=O)c2ccccc2)CC1` (stereo partly drawn) (as salt: hydrochloride) [Ex. 2M, 1-[[[4-[(phenylsulfonyl)amino]cyclohexyl]amino]acetyl]-2-cyano-(S)-pyrrolidine] stands 120 to 122 °C.
As for `COc1ccc(-c2csc(N3CCC(NCC(=O)N4CCC[C@H]4C#N)CC3)n2)cc1` (as salt: hydrochloride) [Ex. 2MM], the melting point was 154 to 156 °C.
Under `N#C[C@@H]1CCCN1C(=O)CN[C@H]1CC[C@H](Nc2ncccc2C(F)(F)F)CC1` (as salt: hydrochloride) [Ex. 2P, 1-[[4-[[(3-trifluoromethyl-2-pyridinyl)amino]cyclohexyl]amino]acetyl]-2-cyano-(S)-pyrrolidine] stands 289 to 292 °C; under `N#C[C@@H]1CCCN1C(=O)CN[C@H]1CC[C@H](NS(=O)(=O)c2ccc(Cl)cc2)CC1` (as salt: hydrochloride) [Ex. 2Q, 1-[[[[4-[(4-chlorophenyl)sulfonyl]amino]cyclohexyl]amino]acetyl]-2-cyano-(S)-pyrrolidine], 160 to 162 °C.
`N#C[C@@H]1CCCN1C(=O)CNC1CCC(Nc2ccnc(Cl)n2)CC1` (stereo partly drawn) (as salt: hydrochloride) [Ex. 2S, 1-[[[4-[(2-chloro-4-pyrimidinyl)amino]cyclohexyl]amino]acetyl]-2-cyano-(S)-pyrrolidine] gave a melting point of 290 to 293 °C.
To `N#C[C@@H]1CCCN1C(=O)CN[C@H]1CC[C@H](NC(=O)c2ccc(Cl)cc2)CC1` (as salt: hydrochloride) [Ex. 2T, 1-[[[4-[(4-chlorobenzoyl)amino]cyclohexyl]amino]acetyl]-2-cyano-, (S)-pyrrolidine] belongs 260 to 263 °C; to `CC(C)(C)C(=O)NC1CCC(NCC(=O)N2CCC[C@H]2C#N)CC1` (stereo partly drawn) (as salt: hydrochloride) [Ex. 2U, 1-[[[4-[(2,2-dimethyl-1-oxopropyl)amino]cyclohexyl]amino]acetyl]-2-cyano-(S)-pyrrolidine], 290 to 294 °C; to `N#C[C@@H]1CCCN1C(=O)CNC1CCC(Nc2nc3ccccc3s2)CC1` (stereo partly drawn) (as salt: hydrochloride) [Ex. 2V, 1-[[[4-[(2-benzothiazolyl)amino]cyclohexyl]amino]acetyl]-2-cyano-(S)-pyrrolidine], 246 to 248 °C.
Under `N#Cc1ccc(NC2CCC(NCC(=O)N3CCC[C@H]3C#N)CC2)cc1` (stereo partly drawn) (as salt: hydrochloride) [Ex. 2W, 1-[[[4-[(4-cyanophenyl)amino]cyclohexyl]amino]acetyl]-2-cyano-(S)-pyrrolidine] stands 165 to 167 °C; under `N#C[C@@H]1CCCN1C(=O)CNC1CCC(NC(=O)C2CCCCC2)CC1` (stereo partly drawn) (as salt: hydrochloride) [Ex. 2X, 1-[[[4-[(cyclohexylcarbonyl)amino]cyclohexyl]amino]acetyl]-2-cyano-(S)-pyrrolidine], 189 to 190 °C; under `N#C[C@@H]1CCCN1C(=O)CNC1CCC(Nc2nc3cc(Cl)ccc3s2)CC1` (stereo partly drawn) (as salt: hydrochloride) [Ex. 2Y, 1-[[[4-[(5-chloro-2-benzothiazolyl)amino]cyclohexyl]amino]acetyl]-2-cyano-(S)-pyrrolidine], 290 to 294 °C.
`N#C[C@@H]1CCCN1C(=O)CN[C@H]1CC[C@H](NS(=O)(=O)c2ccc(C(F)(F)F)cc2)CC1` (as salt: hydrochloride) [Ex. 2Z, 1-[[[4-[[[(4-trifluoromethyl)phenyl]sulfonyl]amino]cyclohexyl]amino]acetyl]-2-cyano-(S)-pyrrolidine]: the melting point fell in the range of 135 to 137 °C.
Molecule `N#C[C@@H]1CCCN1C(=O)CNC1CCN(C(=O)C2CCCCC2)CC1` (as salt: hydrochloride) [Ex. 4A, 1-[[[1-(cyclohexylcarbonyl)-4-piperidinyl]amino]acetyl]-2-cyano-(S)-pyrrolidine] came in with a melting point of over 300 °C.
To `N#C[C@@H]1CCCN1C(=O)CNC1CCN(C(=O)c2ccc(Cl)cc2)CC1` (as salt: hydrochloride) [Ex. 4B] belongs 152 to 155 °C; to `N#C[C@@H]1CCCN1C(=O)CNC1CCN(S(=O)(=O)c2ccc(C(F)(F)F)cc2)CC1` (as salt: hydrochloride) [Ex. 4C], over 300 °C.
Turning to `N#C[C@@H]1CCCN1C(=O)CNC1CCN(S(=O)(=O)c2ccccc2)CC1` (as salt: hydrochloride) [Ex. 4D, 1-[[(1-phenylsulfonyl-4-piperidinyl)amino]acetyl]-2-cyano-(S)-pyrrolidine], the melting point was over 300 °C.
As for `CC(C)(CNc1ccc(C#N)cn1)NCC(=O)N1CCC[C@H]1C#N` [Ex. 2A, 1-[[[2-[(5-cyano-2-pyridinyl)amino]-1,1-dimethylethyl]amino]acetyl]-2-cyano-(S)-pyrrolidine], the melting point lay in the range of 47 to 49 °C.
